Six compounds from paper PMC8179002, “Inhibitors of thiol-mediated uptake” (Chemical Science, 2020) can be followed below.

For experiment [1], the system named is cellular uptake of 1 in HeLa Kyoto cells. Description: cells. It is filed as cell-based. The conditions noted are these: for IC50: read-out: IC50, inhibition of cellular uptake of 1; for minimal effective concentration: read-out: MIC, inhibition of cellular uptake of 1; for MIC (concentration that causes ∼15% reduction of reporter uptake), against reporter 1: pre-incubation time not given (Fig. 2: 1 h pre-incubation, 30 min with reporter; some 15 min). In outline: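 HeLa Kyoto cells were pre-incubated with inhibitors at varying concentrations and times, washed, then given reporter 1 at 10 μM final for 30 min at 37°C; alternatively, inhibitors were kept during reporter exposure. Hoechst/PI staining and 10x high-content imaging gave mean intracellular fluorescence per cell and viability from PI-negative nuclei.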

The test system of experiment [2] is cellular uptake of 2 in HeLa Kyoto cells. Description: cells. It counts as cell-based.
Setting [3] is: HeLa Kyoto, 0.5 h, HeLa, tpre 0.5 h, then tco 0.5 h co-incubation of inhibitor and 1 (10 µM).
Where [4] appears, read: HeLa Kyoto, 0.5 h, HeLa, tpre 0.5 h with inhibitor, removal, tinc 0.5 h with 1 (10 µM).
Setting [5] is: HeLa Kyoto, 0.5 h, HeLa, tpre 5.5 h with FBS, then tco 0.5 h co-incubation of inhibitor and 1 (10 µM).
Setting [6] is: HeLa Kyoto, 0.5 h, HeLa, tpre 23.5 h with FBS, then tco 0.5 h co-incubation of inhibitor and 1 (10 µM).
The mark [7] stands for this setting: HeLa Kyoto, 1 h, HeLa, tpre 1 h with inhibitor, removal, tinc 0.5 h with 1 (10 µM).
Where [8] appears, read: HeLa Kyoto, 2 h, HeLa, tpre 2 h with inhibitor, removal, tinc 0.5 h with 1 (10 µM).
The mark [9] stands for this setting: HeLa Kyoto, 4 h, HeLa, tpre 4 h with inhibitor, removal, tinc 0.5 h with 1 (10 µM).
Where [10] appears, read: HeLa Kyoto, HeLa, tpre 1 h with inhibitor, removal, tinc 0.5 h with 1 (10 µM).
Where [11] appears, read: HeLa Kyoto, HeLa, tpre 2 h with inhibitor, removal, tinc 0.5 h with 1 (10 µM).
The mark [12] stands for this setting: HeLa Kyoto, HeLa, tpre 4 h with inhibitor, removal, tinc 0.5 h with 1 (10 µM).
The mark [13] stands for this setting: HeLa Kyoto, HeLa, tpre 5.5 h with FBS, then tco 0.5 h co-incubation of inhibitor and 1 (10 µM).
Where [14] appears, read: HeLa Kyoto, HeLa, tpre 23.5 h with FBS, then tco 0.5 h co-incubation of inhibitor and 1 (10 µM).
[15] abbreviates: HeLa Kyoto, read-out: IC50, inhibition of cellular uptake of 2, HeLa, tpre 4 h with inhibitor, removal, tinc 0.5 h with 2 (10 µM).
Setting [16] is: HeLa, tpre 0.5 h, then tco 0.5 h co-incubation of inhibitor and 2 (10 µM).
Setting [17] is: HeLa, tpre 4 h with inhibitor, removal, tinc 0.5 h with 2 (10 µM).
Setting [18] is: HeLa, tpre 6 h with FBS, removal, tinc 0.5 h with 2 (10 µM).
[19] abbreviates: HeLa Kyoto, 0.5 h, HeLa, tpre 0.5 h, then tco 0.5 h co-incubation of inhibitor and 2 (10 µM), read-out: IC50, inhibition of cellular uptake of 2.
Setting [20] is: HeLa Kyoto, HeLa, tpre 1 h with inhibitor, removal, tinc 0.5 h with 2 (10 µM), read-out: IC50, inhibition of cellular uptake of 2.
Where [21] appears, read: HeLa Kyoto, HeLa, tpre 6 h with FBS, removal, tinc 0.5 h with 2 (10 µM), read-out: IC50, inhibition of cellular uptake of 2.
[22] abbreviates: HeLa, tpre 1 h with inhibitor, removal, tinc 0.5 h with 2 (10 µM).
[23] abbreviates: HeLa, tpre 1 h with inhibitor, removal, tinc 0.5 h with 1 (10 µM).
The mark [24] stands for this setting: HeLa, tpre 2 h with inhibitor, removal, tinc 0.5 h with 1 (10 µM).

≈ marks a conversion by molar mass, not a printed value. Read-outs that look alike come from different tables or passages of the source. Bridge positions count the residues as written; N and C are the ends. Peptide text beside a SMILES is read from it.

For `O=C(O)CNC(=O)c1ccc2c(c1)SSSSS2` [compound 6], the IC50 in experiment [1] (setting [3]) was 5.1 ± 0.3 µM; in experiment [1] (setting [4]) it was 93 ± 28 µM; in experiment [1] (setting [10]), 35 ± 9 µM; in experiment [1] (setting [11]), 23 ± 6 µM; in experiment [1] (setting [12]) it was 24 ± 5 µM; in experiment [1] (setting [13]), 20 ± 1 µM. Moreover, the IC50 in experiment [1] (setting [14]) is greater than 20 µM; in experiment [2] (HeLa Kyoto, 0.5 h, read-out: IC50, inhibition of cellular uptake of 2, HeLa, tpre 0.5 h, then tco 0.5 h co-incubation of inhibitor and 2 (10 µM)), greater than 20 µM; in experiment [2] (setting [15]), greater than 10 µM; in experiment [2] (HeLa Kyoto, read-out: IC50, inhibition of cellular uptake of 2, HeLa, tpre 6 h with FBS, removal, tinc 0.5 h with 2 (10 µM)), greater than 100 µM. In addition, the minimal effective concentration in experiment [1] (setting [3]) is 0.5 µM; in experiment [1] (setting [4]), 0.3 µM; in experiment [1] (setting [5]) it was 5 µM; in experiment [1] (setting [6]) it was 12 µM; in experiment [1] (setting [7]) it was 0.3 µM; in experiment [1] (setting [8]), 0.4 µM. In addition, the minimal effective concentration in experiment [1] (setting [9]) amounted to 0.4 µM. For the same compound, the “MIC (concentration that causes ∼15% reduction of reporter uptake), against reporter 1” value in experiment [1] (HeLa) was “≈ 0.3 μM”. Besides, the “MIC against reporter 2” value in experiment [2] (HeLa, longer pre-incubation (Fig. 2: 4 h pre-incubation)) came to 4 µM (≈ 1.35 µg/mL). The “MIC, inhibition of cellular uptake of 2” value in experiment [2] (setting [16]) is given as greater than 20 µM; in experiment [2] (setting [17]), 4 µM; in experiment [2] (setting [18]), 60 µM.

On to `CCN1C(=O)C2SSC1C(=O)N2CC(=O)O` (stereo not drawn) [compound 4], for which the IC50 in experiment [1] (setting [3]) was 2 ± 0.2 µM; in experiment [1] (setting [4]) it was 4.4 ± 1.3 µM; in experiment [1] (setting [10]), 1.1 ± 0.1 µM; in experiment [1] (setting [11]), 1.5 ± 0.1 µM; in experiment [1] (setting [12]) it was 2.1 ± 0.2 µM; in experiment [1] (setting [13]) it was 4.9 ± 0.5 µM. The concentration for half-maximal inhibition (IC50) is 66 ± 14 µM in experiment [1] (setting [14]); greater than 20 µM in experiment [2] (setting [19]); greater than 20 µM in experiment [2] (setting [20]); greater than 2 µM in experiment [2] (HeLa Kyoto, HeLa, tpre 4 h with inhibitor, removal, tinc 0.5 h with 2 (10 µM), read-out: IC50, inhibition of cellular uptake of 2); greater than 100 µM in experiment [2] (setting [21]). Also, the minimal effective concentration is 0.3 µM in experiment [1] (setting [3]); less than 0.1 µM in experiment [1] (setting [4]); 0.3 µM in experiment [1] (setting [5]); 8.1 µM in experiment [1] (setting [6]); 0.1 µM in experiment [1] (setting [7]); 0.1 µM in experiment [1] (setting [8]). Further, the minimal effective concentration in experiment [1] (setting [9]) was 0.1 µM. The “MIC, inhibition of cellular uptake of 2” value in experiment [2] (setting [16]) is on record as 20 µM; in experiment [2] (setting [22]), greater than 20 µM; in experiment [2] (setting [17]) it was greater than 2 µM; in experiment [2] (setting [18]), 80 µM.

Regarding `[O-][S+]1CC(O)C(O)CS1` (stereo not drawn) [compound 17], the IC50 in experiment [1] (setting [3]) is greater than 500 µM; in experiment [1] (setting [13]) it was greater than 1000 µM; in experiment [1] (setting [14]) it was greater than 500 µM; in experiment [1] (setting [23]), greater than 500 µM; in experiment [1] (setting [24]), greater than 500 µM; in experiment [1] (HeLa, tpre 4 h with inhibitor, removal, tinc 0.5 h with 1 (10 µM)) it was greater than 500 µM. Besides, the minimal effective concentration is 100 µM in experiment [1] (setting [3]); 250 µM in experiment [1] (setting [5]); 150 µM in experiment [1] (setting [6]); 300 µM in experiment [1] (setting [8]); 250 µM in experiment [1] (setting [9]); 250 µM in experiment [1] (setting [23]).

In the case of `CCN1C(=O)C2SSSSC1C(=O)N2CC(=O)O` (stereo not drawn) [compound 3], the IC50 in experiment [1] (setting [3]) is 2.7 ± 0.1 µM; in experiment [1] (setting [4]) it was 1.7 ± 0.2 µM; in experiment [1] (setting [10]), 1.3 ± 0.2 µM; in experiment [1] (setting [11]) it was 2.7 ± 0.6 µM; in experiment [1] (setting [12]), 8.2 ± 3.2 µM; in experiment [1] (setting [13]), 9.6 ± 1.2 µM. The IC50 in experiment [1] (setting [14]) was greater than 50 µM; in experiment [2] (setting [19]) it was greater than 20 µM; in experiment [2] (setting [20]), greater than 20 µM; in experiment [2] (setting [21]) it was greater than 100 µM. For the same compound, the minimal effective concentration in experiment [1] (setting [3]) is less than 0.5 µM; in experiment [1] (setting [4]), less than 0.1 µM; in experiment [1] (setting [5]), less than 0.5 µM; in experiment [1] (setting [6]), 30 µM; in experiment [1] (setting [7]), less than 0.1 µM; in experiment [1] (setting [8]), less than 0.1 µM. Besides, the minimal effective concentration in experiment [1] (setting [9]) was less than 0.1 µM. Moreover, the “MIC (concentration that causes ∼15% reduction of reporter uptake), against reporter 1” value in experiment [1] (HeLa) was less than 0.1 µM. The results for the “MIC, inhibition of cellular uptake of 2” value in experiment [2] (setting [16]), in experiment [2] (setting [22]) and in experiment [2] (setting [18]) were 17 µM, greater than 20 µM and 40 µM, respectively.

Turning to `O=C(O)CC[C@H](NC(=O)CCCCC1CCSS1(=O)=O)C(=O)O` (stereo partly drawn) [compound 15], the IC50 in experiment [1] (setting [4]) is 407 ± 49 µM; in experiment [1] (setting [10]), 306 ± 30 µM; in experiment [1] (setting [11]), 298 ± 31 µM; in experiment [1] (setting [13]) it was 258 ± 33 µM; in experiment [1] (setting [14]) it was 219 ± 16 µM; in experiment [2] (setting [15]), greater than 500 µM. Also, the concentration for half-maximal inhibition (IC50) in experiment [2] (HeLa Kyoto, read-out: IC50, inhibition of cellular uptake of 2, HeLa, tpre 23.5 h with FBS, then tco 0.5 h co-incubation of inhibitor and 2 (10 µM)) was greater than 500 µM. Besides, the minimal effective concentration in experiment [1] (setting [4]) was found to be 100 µM; in experiment [1] (setting [5]) it was 65 µM; in experiment [1] (setting [6]) it was 55 µM; in experiment [1] (setting [7]), 50 µM; in experiment [1] (setting [8]), 50 µM. Also, the “MIC, inhibition of cellular uptake of 2” value in experiment [2] (setting [17]) is listed as 150 µM; in experiment [2] (HeLa, tpre 23.5 h with FBS, then tco 0.5 h co-incubation of inhibitor and 2 (10 µM)), less than 20 µM.

For the compound `N[C@H]1CSSC[C@@H](C(=O)N[C@@H](CCC(=O)O)C(=O)O)NC(=O)CNC1=O` [compound 19] (H-CGCE-OH; disulfide 1-3), the minimal effective concentration in experiment [1] (1 h) and in experiment [1] (2 h) was 400 µM each time. Further, the “MIC (concentration that causes ∼15% reduction of reporter uptake), against reporter 1” value in experiment [1] (HeLa) was “≈ 300 μM”. The IC50 in experiment [1] (HeLa, tpre 0.5 h with inhibitor, removal, tinc 0.5 h with 1 (10 µM)) is greater than 2000 µM; in experiment [1] (setting [23]), greater than 2000 µM; in experiment [1] (setting [24]), greater than 2000 µM; in experiment [2] (HeLa, tpre 0.5 h, then tco 0.5 h co-incubation of inhibitor and 2 (10 µM), read-out: IC50, inhibition of cellular uptake of 2), 46 ± 5 µM; in experiment [2] (HeLa, tpre 1 h with inhibitor, removal, tinc 0.5 h with 2 (10 µM), read-out: IC50, inhibition of cellular uptake of 2), greater than 1000 µM; in experiment [2] (HeLa, tpre 1.5 h, then tco 0.5 h co-incubation of inhibitor and 2 (10 µM), read-out: IC50, inhibition of cellular uptake of 2), 58 ± 10 µM. Besides, the IC50 in experiment [2] (HeLa, tpre 2 h with inhibitor, removal, tinc 0.5 h with 2 (10 µM), read-out: IC50, inhibition of cellular uptake of 2) was greater than 1000 µM; in experiment [2] (HeLa, tpre 4 h with inhibitor, removal, tinc 0.5 h with 2 (10 µM), read-out: IC50, inhibition of cellular uptake of 2) it was greater than 1000 µM. For the same compound, the “MIC, inhibition of cellular uptake of 2” value in experiment [2] (setting [16]) is 5 µM; in experiment [2] (setting [22]), greater than 1000 µM; in experiment [2] (HeLa, tpre 1.5 h, then tco 0.5 h co-incubation of inhibitor and 2 (10 µM)), 7 µM; in experiment [2] (HeLa, tpre 2 h with inhibitor, removal, tinc 0.5 h with 2 (10 µM)), greater than 1000 µM; in experiment [2] (setting [17]) it was 900 µM. Further, the “MIC against reporter 2” value in experiment [2] (HeLa, upon co-incubation) is recorded as “≈ 5 μM”.
